# The source made the active and inactive calls.
# How the values were obtained:
# [1] = target: T1, E3 ubiquitin-protein ligase XIAP (Homo sapiens, UniProt P98170); experiment: Counter Screen using XIAP-Bir3 for Chemical Antagonists of Bir1/2 domains of IAP-family anti-apoptotic proteins. [Related pubchem assays (depositor defined):AID1018, AID1449, AID1514, AID1638, AID1749, AID1750, AID488957, AID488963]
# [2] = target: T1, E3 ubiquitin-protein ligase XIAP; experiment: small molecules displacing peptide from XIAP – biochemical, IAP family, fluorescence polarization (AID 1018); format: functional
# [3] = target: T2, Tyrosine-protein phosphatase non-receptor type 7 (Homo sapiens, UniProt P35236); format: functional
# T2 sequence (P35236 whole entry): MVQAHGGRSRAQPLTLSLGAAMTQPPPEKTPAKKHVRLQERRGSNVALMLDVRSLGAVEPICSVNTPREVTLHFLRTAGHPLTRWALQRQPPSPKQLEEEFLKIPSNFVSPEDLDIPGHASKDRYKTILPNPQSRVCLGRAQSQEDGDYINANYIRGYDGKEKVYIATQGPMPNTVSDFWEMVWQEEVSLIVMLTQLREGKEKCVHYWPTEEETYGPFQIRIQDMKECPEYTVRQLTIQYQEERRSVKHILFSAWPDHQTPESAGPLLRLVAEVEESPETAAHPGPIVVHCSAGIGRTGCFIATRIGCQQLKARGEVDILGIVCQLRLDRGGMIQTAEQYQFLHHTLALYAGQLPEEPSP
# [4] = target: T3, Tyrosine-protein phosphatase non-receptor type 22 (Homo sapiens, UniProt Q9Y2R2); format: functional
# T3 sequence (Q9Y2R2 whole entry): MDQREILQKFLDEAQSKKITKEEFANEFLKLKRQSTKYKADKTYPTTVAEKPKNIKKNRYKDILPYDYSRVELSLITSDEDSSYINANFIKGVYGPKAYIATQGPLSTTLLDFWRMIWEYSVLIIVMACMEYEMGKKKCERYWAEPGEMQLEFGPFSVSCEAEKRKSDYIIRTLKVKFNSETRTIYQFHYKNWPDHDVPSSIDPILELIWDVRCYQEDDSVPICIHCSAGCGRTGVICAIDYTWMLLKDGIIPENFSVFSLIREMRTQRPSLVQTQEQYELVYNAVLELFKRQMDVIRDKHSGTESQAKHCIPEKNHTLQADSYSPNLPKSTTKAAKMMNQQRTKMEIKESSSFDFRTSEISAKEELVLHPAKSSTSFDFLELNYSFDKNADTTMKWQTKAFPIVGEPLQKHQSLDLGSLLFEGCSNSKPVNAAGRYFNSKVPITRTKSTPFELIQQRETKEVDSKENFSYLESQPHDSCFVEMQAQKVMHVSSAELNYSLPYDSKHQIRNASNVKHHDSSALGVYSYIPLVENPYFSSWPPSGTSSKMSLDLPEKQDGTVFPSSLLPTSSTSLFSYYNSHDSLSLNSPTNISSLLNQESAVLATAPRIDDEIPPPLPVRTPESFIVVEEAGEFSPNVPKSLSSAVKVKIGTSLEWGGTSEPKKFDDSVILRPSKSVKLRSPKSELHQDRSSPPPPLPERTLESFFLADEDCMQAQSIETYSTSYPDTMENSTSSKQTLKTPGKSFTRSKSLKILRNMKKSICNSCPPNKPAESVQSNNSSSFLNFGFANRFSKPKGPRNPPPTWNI
# [5] = target: T3, Tyrosine-protein phosphatase non-receptor type 22; format: functional; remark: listed apart in the source
# [6] = viability of PTEN-deleted HCT116 cells – cell-based, HCT116 PTEN knockout, dose response (AID 1047); format: functional;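 further: HCT116 colon tumor cells with PTEN knocked out; cells exposed to compound for 60 hours before readout; potency for loss of cell viability measured by luminescence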
# [7] = viability of HCT116 lacking mutant beta-catenin – cell-based, human colon tumor, dose response (AID 1045); format: functional;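 further: HCT116 colon tumor cells with beta catenin knocked out; cells exposed to compound for 60 hours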
# [8] = target: G-protein coupled receptor 55 (Homo sapiens, UniProt Q9Y2T6); experiment: selective activators of receptor GPR55 – imaging, U2OS cells, beta-arrestin-GFP redistribution, primary screen (AID 1961); format: functional
# [9] = target: T4, Replicative DNA helicase DnaB (Mycobacterium tuberculosis, UniProt P9WMR3); experiment: DnaB intein splicing inhibitors, dose response, biochemical, cell-free fluorescence (AID 449749); format: functional
# T4 sequence (P9WMR3 whole entry): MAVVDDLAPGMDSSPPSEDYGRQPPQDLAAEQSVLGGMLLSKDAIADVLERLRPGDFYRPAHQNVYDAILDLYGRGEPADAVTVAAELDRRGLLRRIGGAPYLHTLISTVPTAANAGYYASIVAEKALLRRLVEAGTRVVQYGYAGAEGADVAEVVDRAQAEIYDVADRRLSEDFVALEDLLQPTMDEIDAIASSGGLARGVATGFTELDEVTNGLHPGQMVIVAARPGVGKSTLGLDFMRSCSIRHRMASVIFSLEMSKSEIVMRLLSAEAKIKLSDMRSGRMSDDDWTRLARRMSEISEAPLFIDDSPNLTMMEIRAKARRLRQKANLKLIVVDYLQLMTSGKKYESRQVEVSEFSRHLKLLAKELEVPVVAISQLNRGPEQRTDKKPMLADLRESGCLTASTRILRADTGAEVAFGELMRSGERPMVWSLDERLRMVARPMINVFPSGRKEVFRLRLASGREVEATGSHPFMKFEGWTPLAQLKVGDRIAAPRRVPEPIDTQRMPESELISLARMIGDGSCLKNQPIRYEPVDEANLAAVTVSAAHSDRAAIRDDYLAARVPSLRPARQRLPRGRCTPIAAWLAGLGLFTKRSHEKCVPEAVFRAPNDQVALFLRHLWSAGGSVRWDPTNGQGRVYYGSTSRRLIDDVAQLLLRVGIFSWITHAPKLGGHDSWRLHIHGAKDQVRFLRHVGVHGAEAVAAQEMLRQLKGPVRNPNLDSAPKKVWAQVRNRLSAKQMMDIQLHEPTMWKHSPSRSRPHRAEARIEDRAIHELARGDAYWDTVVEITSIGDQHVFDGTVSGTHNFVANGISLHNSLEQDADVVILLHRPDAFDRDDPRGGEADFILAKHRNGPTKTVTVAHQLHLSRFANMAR
# [10] = target: T5, Protein RecA (Mycobacterium tuberculosis, UniProt P9WHJ3); experiment: Fluorescence Cell-Free Homogeneous Dose Retest to Identify Inhibitors of RecA-Intein Splicing Activity. [Related pubchem assays (depositor defined):AID2097, AID2223, AID489010, AID492950]; format: functional
# T5 sequence (P9WHJ3 whole entry): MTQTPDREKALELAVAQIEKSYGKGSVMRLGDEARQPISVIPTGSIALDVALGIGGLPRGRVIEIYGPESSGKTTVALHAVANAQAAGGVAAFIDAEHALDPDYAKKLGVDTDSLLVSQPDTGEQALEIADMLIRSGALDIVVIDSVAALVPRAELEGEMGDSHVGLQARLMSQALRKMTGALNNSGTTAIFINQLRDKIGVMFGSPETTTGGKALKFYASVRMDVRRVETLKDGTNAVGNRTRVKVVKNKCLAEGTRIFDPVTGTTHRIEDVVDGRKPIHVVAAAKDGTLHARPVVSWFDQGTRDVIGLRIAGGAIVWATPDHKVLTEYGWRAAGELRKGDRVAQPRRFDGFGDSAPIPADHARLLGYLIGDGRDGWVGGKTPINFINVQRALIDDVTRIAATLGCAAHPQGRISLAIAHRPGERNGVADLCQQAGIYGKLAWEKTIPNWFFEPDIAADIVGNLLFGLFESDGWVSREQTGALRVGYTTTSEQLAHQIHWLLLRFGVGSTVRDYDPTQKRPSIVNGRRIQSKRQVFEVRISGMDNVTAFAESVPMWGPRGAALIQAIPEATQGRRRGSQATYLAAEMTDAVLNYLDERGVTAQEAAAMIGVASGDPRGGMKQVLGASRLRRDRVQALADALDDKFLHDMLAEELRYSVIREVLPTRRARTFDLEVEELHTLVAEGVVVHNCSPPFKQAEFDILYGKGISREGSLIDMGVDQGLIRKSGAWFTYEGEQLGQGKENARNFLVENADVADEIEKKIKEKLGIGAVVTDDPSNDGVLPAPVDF
# [11] = tested on: INS1; experiment: INS-1E survival protection against cytokine death – cell-based, luminescence, retest, dose response (AID 449756); format: functional; settings: Rattus norvegicus;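 further: cell death triggered by IL-1 beta plus TNF-alpha plus IFN-gamma mixture; protective hits raise ATP signal compared with cytokine alone wells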
# [12] = reduction of Shn3 3'UTR-driven luciferase in osteoblasts – cell-based, Clone20 osteoblasts, firefly luciferase, cherry-picked, dose response (AID 624132); format: functional;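 further: firefly luciferase luminescence from reporter carrying the Shn3 3'UTR in osteoblasts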
# [13] = loss of viability in HepG2 cells – cell-based, CellTiter-Glo, cherry-picked, cytotoxicity control for Shn3 inhibitor project, dose response (AID 624134); format: functional
# [14] = non-specific 3'UTR reporter inhibition in Clone20-Shn3RL – cell-based, Renilla luciferase, cherry-picked, counter-screen for Shn3 inhibitor project, dose response (AID 624133); format: functional
# [15] = Fluorescence-based cell-based high throughput dose response assay for inhibitors of the interaction of nucleotide-binding oligomerization domain containing 2 (NOD2) and the receptor-interacting serine-threonine kinase 2 (RIPK2).; format: functional; settings: Homo sapiens
# [16] = reduced cellular PGC1a acetyl-lysine signal – cell-based, cherry-picked samples, dose response (AID 720514); format: functional;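 further: potency may reflect raised or lowered acetylation signal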
# [17] = HPDE-C7 pancreatic duct cell viability loss – fluorescence, HTS (AID 430); format: functional, cell-based; settings: Homo sapiens
# [18] = viability loss of HPDE-C7K cells – cell-based, fluorescence, HTS, primary screen (AID 431); format: functional; settings: Homo sapiens
# [19] = THP-1 cell cytotoxicity, dose response, cytotoxicity control for non-replicating M. tuberculosis project (AID 489025); format: functional
# [20] = Vero E6 cell cytotoxicity, dose response, cytotoxicity control for non-replicating M. tuberculosis project, secondary assay (AID 492998); format: functional, VeroE6; settings: Vero C1008
# [21] = target: T6, Short transient receptor potential channel 4 (Mus musculus, UniProt Q9QUQ5); experiment: calcium entry via TRPC4 opening agents – cell-based, HEK293 TRPC4/mu-opioid, Fluo-4 calcium, dose response (AID 434937); format: functional
# T6 sequence (Q9QUQ5 whole entry): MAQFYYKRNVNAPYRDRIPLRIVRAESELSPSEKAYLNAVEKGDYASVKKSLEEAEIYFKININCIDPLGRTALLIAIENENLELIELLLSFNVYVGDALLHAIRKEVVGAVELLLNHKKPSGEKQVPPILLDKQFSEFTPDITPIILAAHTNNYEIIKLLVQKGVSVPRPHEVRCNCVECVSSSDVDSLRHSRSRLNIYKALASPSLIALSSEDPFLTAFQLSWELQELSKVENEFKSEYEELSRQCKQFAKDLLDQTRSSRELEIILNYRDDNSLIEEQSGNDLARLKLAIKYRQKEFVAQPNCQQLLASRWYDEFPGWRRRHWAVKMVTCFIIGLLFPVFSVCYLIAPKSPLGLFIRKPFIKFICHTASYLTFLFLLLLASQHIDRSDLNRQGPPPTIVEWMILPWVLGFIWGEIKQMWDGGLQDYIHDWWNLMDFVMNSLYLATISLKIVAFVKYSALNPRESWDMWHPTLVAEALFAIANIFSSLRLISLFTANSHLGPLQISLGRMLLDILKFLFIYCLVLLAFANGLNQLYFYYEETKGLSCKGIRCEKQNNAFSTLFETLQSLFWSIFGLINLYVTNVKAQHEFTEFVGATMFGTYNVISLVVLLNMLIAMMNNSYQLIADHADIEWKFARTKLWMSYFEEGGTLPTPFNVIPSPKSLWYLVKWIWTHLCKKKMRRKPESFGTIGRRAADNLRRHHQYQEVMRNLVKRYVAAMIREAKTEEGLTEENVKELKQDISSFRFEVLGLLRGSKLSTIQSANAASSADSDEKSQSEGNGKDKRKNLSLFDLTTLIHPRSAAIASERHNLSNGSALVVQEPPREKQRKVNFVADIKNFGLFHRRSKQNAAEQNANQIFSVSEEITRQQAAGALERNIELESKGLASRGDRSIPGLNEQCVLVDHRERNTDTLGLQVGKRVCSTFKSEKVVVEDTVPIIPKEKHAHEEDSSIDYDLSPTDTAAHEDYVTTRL
# [22] = cells; format: functional
# T1 sequence (P98170 whole entry): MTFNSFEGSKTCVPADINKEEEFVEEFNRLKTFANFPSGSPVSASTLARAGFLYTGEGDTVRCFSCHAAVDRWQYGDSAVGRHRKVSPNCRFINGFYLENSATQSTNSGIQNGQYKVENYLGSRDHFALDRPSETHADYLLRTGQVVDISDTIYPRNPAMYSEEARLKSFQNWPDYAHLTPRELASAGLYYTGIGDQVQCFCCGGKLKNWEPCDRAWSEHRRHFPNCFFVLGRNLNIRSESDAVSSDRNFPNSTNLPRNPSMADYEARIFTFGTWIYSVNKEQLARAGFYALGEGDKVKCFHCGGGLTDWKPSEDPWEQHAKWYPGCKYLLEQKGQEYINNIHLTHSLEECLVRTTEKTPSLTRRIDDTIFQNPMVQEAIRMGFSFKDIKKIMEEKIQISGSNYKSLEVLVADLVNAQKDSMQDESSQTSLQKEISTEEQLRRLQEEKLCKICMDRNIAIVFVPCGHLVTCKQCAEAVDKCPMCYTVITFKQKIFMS
# Chain of G-protein coupled receptor 55 (Q9Y2T6 whole entry): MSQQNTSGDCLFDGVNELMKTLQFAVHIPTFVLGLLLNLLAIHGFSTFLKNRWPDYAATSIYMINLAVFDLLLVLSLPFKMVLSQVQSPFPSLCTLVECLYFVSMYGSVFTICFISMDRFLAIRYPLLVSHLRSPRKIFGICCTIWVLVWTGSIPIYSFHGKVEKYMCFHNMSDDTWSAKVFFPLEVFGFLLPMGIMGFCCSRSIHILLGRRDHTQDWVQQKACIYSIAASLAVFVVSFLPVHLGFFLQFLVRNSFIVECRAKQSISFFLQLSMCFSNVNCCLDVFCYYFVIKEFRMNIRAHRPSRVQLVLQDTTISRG
compound,measurement,setting,value
CC(C)(C)NC(=O)C(c1ccncc1)N(C(=O)Cn1nnc(-c2ccc(F)cc2)n1)c1ccccc1F (configuration not stated),IC50,[1],> 100 µM (inactive)
same,IC50,[2],> 100 µM (not active)
Brc1ccc(C2Nc3cccc4cccc(c34)N2)o1,IC50,[3],> 79.4 µM (inactive)
same,IC50,[4],> 79.4 µM (inactive)
same,IC50,[5],> 79.4 µM (inactive)
O=C(NCc1cccnc1)/C(=C/c1ccc(-c2ccc(Cl)cc2)o1)S(=O)(=O)c1ccccc1,EC50,[6],4.4 µM (active)
same,EC50,[7],4.08 µM (active)
same,EC50,[8],> 32 µM (inactive)
same,AC50,[9],> 380 µM (inactive)
same,EC50,[10],27.3 µM (active)
same,AC50,[11],6.51 µM (active)
same,AC50,[12],5.35 µM (active)
same,AC50,[13],11.9 µM (active)
same,AC50,[14],11.8 µM (active)
same,IC50,[15],6.4 µM (active)
same,AC50,[16],6.04 µM (active)
CCOc1ccc(C(=O)Nc2cccc(NC(=O)c3cccs3)c2)cc1[N+](=O)[O-],IC50,[1],> 100 µM (inactive)
same,IC50,[2],> 100 µM (not active)
Cn1c(SCC(=O)N2CCN(c3ccccc3)CC2)nnc1-c1cc2ccccc2o1,IC50,[3],> 79.4 µM (inactive)
same,IC50,[4],> 79.4 µM (inactive)
same,IC50,[5],> 79.4 µM (inactive)
CCn1cc(CNC(=O)c2cc([N+](=O)[O-])c(C)c([N+](=O)[O-])c2)cn1,IC50,[3],> 79.4 µM (inactive)
same,IC50,[4],> 79.4 µM (inactive)
same,IC50,[5],> 79.4 µM (inactive)
COC(=O)C1=C(C(=O)OC)N2C=CC=CC2(C)C(C(=O)OC)=C1C(=O)OC (configuration not stated),IC50,[1],> 100 µM (inactive)
same,IC50,[2],> 100 µM (not active)
CN(C)C=C1C(=O)N(C2CCCCC2)C(=O)N(C2CCCCC2)C1=O,EC50,[17],9.27 µM (active)
same,EC50,[18],13.7 µM (active)
same,CC50,[19],> 40 µM (active)
same,CC50,[20],> 20 µM (active)
same,EC50,[21],9.44 µM (active)
same,IC50,[22],11.2 µM (active)

# Reference: ChEMBL document CHEMBL1201862, “PubChem BioAssay data set” (2004)
